Common to all, as to assay: relative viability (nuclei count vs DMSO), 5 days (fraction); higher = more cells survive
Compound in the experiment “RAF265 + Alpelisib”: Cn1c(Nc2ccc(C(F)(F)F)cc2)nc2cc(Oc3ccnc(-c4ncc(C(F)(F)F)[nH]4)c3)ccc21 [RAF265] + Cc1nc(NC(=O)N2CCC[C@H]2C(N)=O)sc1-c1ccnc(C(C)(C)C(F)(F)F)c1 [Alpelisib] (partner 2 µM)
The gist of the method:
(§1)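 Lung cancer cell lines, seeded in 1536-well plates, were treated the following day by pin tool with a single drug or with five library-drug doses (not always all listed) in √10 steps on top of a fixed anchor-drug dose. Cells were fixed and nuclei stained in one step after 5 days, and nuclei were counted. Relative viability is the nuclei count for treated wells divided by that for vehicle wells, reported as medians of duplicate plates.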

Compound in the experiment “RAF265 + Trametinib”: Cn1c(Nc2ccc(C(F)(F)F)cc2)nc2cc(Oc3ccnc(-c4ncc(C(F)(F)F)[nH]4)c3)ccc21 [RAF265] + CC(=O)Nc1cccc(-n2c(=O)n(C3CC3)c(=O)c3c(Nc4ccc(I)cc4F)n(C)c(=O)c(C)c32)c1 [Trametinib] (partner 0.02 µM)
In outline: as §1

Compound in the experiment “IPA-3 + Trametinib”: C1=CC=C2C(=C1)C=CC(=C2SSC3=C(C=CC4=CC=CC=C43)O)O [IPA-3] + CC(=O)Nc1cccc(-n2c(=O)n(C3CC3)c(=O)c3c(Nc4ccc(I)cc4F)n(C)c(=O)c(C)c32)c1 [Trametinib] (partner 0.02 µM)
In outline:
as §1

Compound in the experiment “Doramapimod + Luminespib”: Cc1ccc(-n2nc(C(C)(C)C)cc2NC(=O)Nc2ccc(OCCN3CCOCC3)c3ccccc23)cc1 [Doramapimod] + CCNC(=O)c1noc(-c2cc(C(C)C)c(O)cc2O)c1-c1ccc(CN2CCOCC2)cc1 [Luminespib] (partner 0.01 µM)
The gist of the method:
as §1

On to UMC-11, for which the relative viability in the experiment with RAF265 + Alpelisib (first compound 0.01 µM) was 0.972; in the experiment with RAF265 + Alpelisib (first compound 0.03162 µM), 0.981; in the experiment with RAF265 + Alpelisib (first compound 0.1 µM), 0.969; with RAF265 + Alpelisib (first compound 0.3162 µM), 1.14; with RAF265 + Alpelisib (first compound 1 µM), 0.937; with RAF265 + Trametinib (first compound 0.01 µM), 0.749. Also, the relative viability stood at 0.634 with RAF265 + Trametinib (first compound 0.03162 µM); 0.748 with RAF265 + Trametinib (first compound 0.1 µM); 0.855 with RAF265 + Trametinib (first compound 0.3162 µM); 0.649 in the experiment with RAF265 + Trametinib (first compound 1 µM); 0.804 with IPA-3 + Trametinib (first compound 0.2 µM); 0.666 with IPA-3 + Trametinib (first compound 0.6325 µM). Moreover, the relative viability was 0.677 with IPA-3 + Trametinib (first compound 2 µM); 0.6 with IPA-3 + Trametinib (first compound 6.325 µM); 0.794 with IPA-3 + Trametinib (first compound 20 µM); 0.911 with Doramapimod + Luminespib (first compound 0.02 µM); 0.869 with Doramapimod + Luminespib (first compound 0.06325 µM); 0.904 with Doramapimod + Luminespib (first compound 0.2 µM). Also, the relative viability in the experiment with Doramapimod + Luminespib (first compound 0.6325 µM) turned out to be 0.965; with Doramapimod + Luminespib (first compound 2 µM), 0.913.

(Values after the supplement of paper PMC10307832.)
